Our source for the T/C values is PubChem BioAssay AID328 (DTP/NCI, 2004).

The assay deals with BDF1 mice, P388 leukemia ip, median survival T/C. The assay can be described thus: NCI In Vivo Anticancer Drug Screen. Data for tumor model P388 Leukemia (intraperitoneal) in B6D2F1 (BDF1) mice. The settings on record: endpoint: median survival time, higher = longer survival. In short, it runs like this:
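Reported as T/C, where T is the survival measurement in dosed animals and C the same measurement in vehicle controls.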

[1] abbreviates: dose: 25.0 mg/kg/injection, schedule: Q01DX009 (ip), vehicle: saline with Tween-80.
Setting [2] is: dose: 50.0 mg/kg/injection, schedule: Q01DX009 (ip), vehicle: saline with Tween-80.
[3] abbreviates: dose: 100.0 mg/kg/injection, schedule: Q01DX009 (ip), vehicle: saline with Tween-80.
[4] abbreviates: dose: 100.0 mg/kg/injection, schedule: Q04DX003 (ip), vehicle: saline with Tween-80.
Setting [5] is: dose: 100.0 mg/kg/injection, schedule: Q04DX003 (ip), vehicle: Klucel (hydroxypropylcellulose) (HPC).
Where [6] appears, read: dose: 200.0 mg/kg/injection, schedule: Q04DX003 (ip), vehicle: Klucel (hydroxypropylcellulose) (HPC).
The mark [7] stands for this setting: dose: 400.0 mg/kg/injection, schedule: Q04DX003 (ip), vehicle: Klucel (hydroxypropylcellulose) (HPC).

Where “and” joins values, the source holds several entries; their conditions need not be identical. Identical values can stand only once. Toxic doses and inconclusive results are not listed.

On to `CCN(CC)c1ccc2c(C)cc(=O)oc2c1`, for which the T/C by setting is: (dose: 6.25 mg/kg/injection, schedule: Q01DX009 (ip), vehicle: saline with Tween-80) 100 % of control; (dose: 12.5 mg/kg/injection, schedule: Q01DX009 (ip), vehicle: saline with Tween-80) 94 % of control; under setting [1], 94 % of control; under setting [2], 94 % of control; under setting [3], 92 % of control; (dose: 200.0 mg/kg/injection, schedule: Q01DX009 (ip), vehicle: saline with Tween-80) 94 % of control.
Take `Cc1ccc(CNCC(=O)O)cc1`: the T/C is 99 % of control (dose: 100.0 mg/kg/injection, schedule: Q04DX003 (ip), vehicle: water); 102 % of control (dose: 200.0 mg/kg/injection, schedule: Q04DX003 (ip), vehicle: water); 90 % of control (dose: 400.0 mg/kg/injection, schedule: Q04DX003 (ip), vehicle: water).
As to `CC(C)N1CCC(=O)NC1=O`, the T/C (dose: 25.0 mg/kg/injection, schedule: Q01DX001 (ip), vehicle: saline sonified) was 104 % of control; the T/C (dose: 50.0 mg/kg/injection, schedule: Q01DX001 (ip), vehicle: saline sonified) is 104 % of control; the T/C (dose: 100.0 mg/kg/injection, schedule: Q01DX001 (ip), vehicle: saline sonified) is 100 % of control.
With `CCC1NC(=O)C(NC(=O)c2ncccc2O)C(C)OC(=O)C(c2ccccc2)NC(=O)C2CC(=O)CCN2C(=O)C(Cc2ccccc2)N(C)C(=O)C2CCCN2C1=O` (configuration not stated) (tested in a mixture with another compound), the T/C was 99 % of control (dose: 18.75 mg/kg/injection, schedule: Q01DX009 (ip), vehicle: Klucel (hydroxypropylcellulose) (HPC)); 105 % of control (dose: 37.5 mg/kg/injection, schedule: Q01DX009 (ip), vehicle: Klucel (hydroxypropylcellulose) (HPC)); 111 % of control (dose: 75.0 mg/kg/injection, schedule: Q01DX009 (ip), vehicle: Klucel (hydroxypropylcellulose) (HPC)).
`COc1ccc(Br)c(C=O)c1OS(=O)(=O)c1ccc(C)cc1`: the T/C was 100 % of control (dose: 25.0 mg/kg/injection, schedule: Q01DX009 (ip), vehicle: other); 110 % of control (dose: 50.0 mg/kg/injection, schedule: Q01DX009 (ip), vehicle: other); 94 % of control (dose: 100.0 mg/kg/injection, schedule: Q01DX009 (ip), vehicle: other); 99 % of control (dose: 200.0 mg/kg/injection, schedule: Q01DX009 (ip), vehicle: other); 95 % of control (dose: 400.0 mg/kg/injection, schedule: Q01DX009 (ip), vehicle: other).
Consider `O=C(O)CNOCN1C(=O)c2ccccc2C1=O`, for which the T/C runs as follows: (dose: 100.0 mg/kg/injection, schedule: Q01DX001 (ip), vehicle: Klucel (hydroxypropylcellulose) (HPC)) 104 % of control; (dose: 200.0 mg/kg/injection, schedule: Q01DX001 (ip), vehicle: Klucel (hydroxypropylcellulose) (HPC)) 91 % of control; (dose: 400.0 mg/kg/injection, schedule: Q01DX001 (ip), vehicle: Klucel (hydroxypropylcellulose) (HPC)) 95 % of control.
On to `CC1CCC2(C(=O)O)CCC3(C)C(=CCC4C5(C)CCC(O)C(C)(C)C5CCC43C)C2C1C` (configuration not stated), for which the T/C is 120 % of control (dose: 100.0 mg/kg/injection, schedule: Q01DX010 (ip), vehicle: acetone); 115 % of control (dose: 200.0 mg/kg/injection, schedule: Q01DX010 (ip), vehicle: acetone); 120 % of control (dose: 400.0 mg/kg/injection, schedule: Q01DX010 (ip), vehicle: acetone).
On to `Cn1c(=O)c2ncnnc2n(C)c1=O`, for which the T/C was 103 % of control (dose: 1.5 mg/kg/injection, schedule: Q01DX009 (ip), vehicle: Klucel (hydroxypropylcellulose) (HPC)); 107 % of control (dose: 3.0 mg/kg/injection, schedule: Q01DX009 (ip), vehicle: Klucel (hydroxypropylcellulose) (HPC)); 112 % of control (dose: 6.0 mg/kg/injection, schedule: Q01DX009 (ip), vehicle: Klucel (hydroxypropylcellulose) (HPC)); 250 % of control (dose: 6.25 mg/kg/injection, schedule: Q01DX009 (ip), vehicle: Klucel (hydroxypropylcellulose) (HPC)); 106 % of control (dose: 12.0 mg/kg/injection, schedule: Q01DX009 (ip), vehicle: Klucel (hydroxypropylcellulose) (HPC)); 108 % of control (dose: 12.5 mg/kg/injection, schedule: Q01DX009 (ip), vehicle: Klucel (hydroxypropylcellulose) (HPC)).
For `O=NN(CCCl)C(=O)Nc1ccc(I)cc1`, the T/C is 113 % of control (dose: 0.44 mg/kg/injection, schedule: Q01DX009 (ip), vehicle: saline with Tween-80); 118 % of control (dose: 0.66 mg/kg/injection, schedule: Q01DX009 (ip), vehicle: saline with Tween-80); 100 % of control (dose: 0.75 mg/kg/injection, schedule: Q04DX003 (ip), vehicle: saline); 104 % of control (dose: 0.9 mg/kg/injection, schedule: Q01DX009 (ip), vehicle: saline); 109 % of control (dose: 1.5 mg/kg/injection, schedule: Q04DX003 (ip), vehicle: saline); 109 % of control (dose: 3.0 mg/kg/injection, schedule: Q04DX003 (ip), vehicle: saline). For the same compound, the T/C is, setting by setting: (dose: 3.6 mg/kg/injection, schedule: Q01DX009 (ip), vehicle: saline) 150 % of control; (dose: 44.0 mg/kg/injection, schedule: Q04DX003 (ip), vehicle: saline sonified) 150 % of control; (dose: 66.0 mg/kg/injection, schedule: Q04DX003 (ip), vehicle: saline sonified) 160 % of control; under setting [4], 215 % of control.
As for `Cc1ccc(S(=O)(=O)[O][Pb]([CH3])([CH3])[CH3])cc1`, the T/C (dose: 1.5 mg/kg/injection, schedule: Q01DX009 (ip), vehicle: saline) is 103 % of control.
As for `C/C(N=Nc1ccccc1[N+](=O)[O-])=N\Nc1ccccc1`, the T/C reads like this: under setting [5], 122 % of control; under setting [6], 122 % of control; under setting [7], 113 % of control.
As for `CCCN(CCC)CCCOC(=O)c1ccc([N+](=O)[O-])cc1`, the T/C was 100 % of control (dose: 50.0 mg/kg/injection, schedule: Q01DX001 (ip), vehicle: saline); 100 % of control (dose: 100.0 mg/kg/injection, schedule: Q01DX001 (ip), vehicle: saline); 100 % of control (dose: 200.0 mg/kg/injection, schedule: Q01DX001 (ip), vehicle: saline).
For `CCCCCCCCOB(OCCCCCCCC)OCCCCCCCC`, the T/C was 91 % of control (dose: 25.0 mg/kg/injection, schedule: Q04DX003 (ip), vehicle: saline with Tween-80); 100 % of control (dose: 50.0 mg/kg/injection, schedule: Q04DX003 (ip), vehicle: saline with Tween-80); 91 % of control and 100 % of control under setting [4].
Consider `NP(=O)(N1CC1)N1CC1`, for which the T/C was 100 % of control (dose: 6.25 mg/kg/injection, schedule: Q04DX003 (ip), vehicle: saline) and 230 % of control (dose: 25.0 mg/kg/injection, schedule: Q04DX003 (ip), vehicle: saline).
For the compound `O=C(O)c1cc(Br)cc(SSc2cc(Br)cc(C(=O)O)c2O)c1O`, the T/C under setting [1] was 103 % of control, the T/C under setting [2] is 94 % of control and the T/C under setting [3] was 106 % of control.
`C[C@H]1CC2=CC(=O)CC[C@]2(C)[C@H]2CC[C@@]3(C)[C@@H](CC[C@]3(C)O)[C@H]12`: the T/C runs as follows: (dose: 100.0 mg/kg/injection, schedule: Q01DX009 (ip), vehicle: Klucel (hydroxypropylcellulose) (HPC)) 100 % of control; under setting [5], 100 % of control; (dose: 200.0 mg/kg/injection, schedule: Q01DX009 (ip), vehicle: Klucel (hydroxypropylcellulose) (HPC)) 105 % of control; under setting [6], 95 % of control; under setting [7], 100 % of control.
